Measurements as given in paper PMC9256669, “Monomethyl auristatin antibody and peptide drug conjugates for trimodal cancer chemo-radio-immunotherapy” (Nature Communications, 2022).
Where “and” joins values, the source holds several entries; their conditions need not be identical. Identical values can stand only once. Entries after “also recorded” stand apart in the source; their conditions may differ. Like-named read-outs stand apart in the source and are kept apart here. Non-standard residues stand in square brackets, D forms with d. Residues, ends and D or L forms follow the SMILES beside them. Dolaproine = CO[C@@H]([C@@H]1CCCN1)[C@@H](C)C(=O)O; Dil = CC[C@H](C)[C@H](NC)[C@@H](CC(=O)O)OC; NMeV = CN[C@H](C(=O)O)C(C)C

Key:
[1] = tested on: melanoma and lung cancer models; settings: without radiotherapy; cited from earlier work
Excerpt: In the last decade, therapeutics targeting immune checkpoint inhibitors (i.e., CTLA-4, PD-1, and PD-L1) have revolutionized cancer care for subsets of oncology patients[24],[25]. There is tremendous interest in developing strategies to further improve immune checkpoint inhibitor responses to wider patient populations. To achieve increasing therapeutic precision, integrating the specificity of ADC with inherent targeting of radiotherapy and immunotherapy is appealing. […] U3-1402 is a HER3-targeted ADC with a topoisomer ...

[2] = cited from earlier work
A549 = assay: Cytotoxicity, Alamar Blue assay; assay type: cell-based, human; settings: 72 h drug exposure, one value per biological replicate
Experimental: (§1) Cells were plated in 96-well plates and exposed to a drug concentration range for 72 h. Alamar Blue was added to the cells and allowed to incubate for 2–4 h at 37 °C. Plates were analyzed using a plate reader with fluorescence measured at 560 nm. Fractional survival was normalized to untreated control cell fluorescent values. Drug IC50 was calculated using Prism software (GraphPad, La Jolla, CA). Cell viability, cytotoxicity and apoptosis were also measured by ApoTox-Glo Triplex Assay (Promega).

HCT116 = assay: Cytotoxicity, Alamar Blue assay; assay type: cell-based, human; settings: 72 h drug exposure, one value per biological replicate
Experimental: as §1

CAL27 = assay: Cytotoxicity, Alamar Blue assay; assay type: cell-based, human
Experimental: (§2) Murine colorectal (MC38 (ENH204-FP)) cancer cell lines were obtained from Kerafast. Murine head and neck MOC1 and MOC2 were generously provided by Dr. R. Uppaluri. CAL27 PIK3CA H1047R expressing cells and 4MOSC1 cells were generated in Dr. Gutkind’s laboratory and previously characterized[42],[55]. […] MC38 cells were cultured in DMEM supplemented with 10% FBS, 1 mM sodium pyruvate (Gibco), 1% non-essential amino acids (Gibco), and 10 mM HEPES (Gibco). MOC1 and MOC2 cells were cultured in IMDM (Lonza)/F-12K nutrient mixture at a 2:1 mixture with 5% FBS, 5 ng/ml EGF (EMD Millipore), 400 ng/ml hydrocortisone (Sigma), and […] insulin (Sigma). On receipt, each cell line was expanded, cryopreserved as low passage stocks, and routinely tested for mycoplasma. Cisplatin (Enzo Biosciences), paclitaxel (Sigma), and MMAE (Concortis) were reconstituted in DMSO. Clinical-grade CDX3379 was provided by Celldex. Clinical grade cetuximab (Erbitux, Lilly Medical) was obtained from UCSD Moores Cancer Center Pharmacy.
as §1

Detroit 562 = assay: Cytotoxicity, Alamar Blue assay; assay type: cell-based, human
Experimental: as §2, §1

4MOSC1 = assay: Cytotoxicity, Alamar Blue assay; assay type: cell-based, murine
Experimental: as §2, §1

B16 = assay: Cytotoxicity, Alamar Blue assay; assay type: cell-based, murine
Experimental: as §2, §1

LL2 = assay: Cytotoxicity, Alamar Blue assay; assay type: cell-based, murine
Experimental: as §2, §1

MC38 = assay: Cytotoxicity, Alamar Blue assay; assay type: cell-based, murine
Experimental: as §2, §1

MOC1 = assay: Cytotoxicity, Alamar Blue assay; assay type: cell-based, murine
Experimental: as §2, with “Clinical-grade CDX3379 was provided by Celldex.” left out
as §1
(§3) measured by Alamar Blue assay. For Alamar Blue assay cytotoxicity, we measured cell viability at 72 hr of […]

MOC2 = assay: Cytotoxicity, Alamar Blue assay; assay type: cell-based, murine
Experimental: as §2, with “Clinical-grade CDX3379 was provided by Celldex.” left out
as §1, §3

B16 tumors = assay: Subcutaneous tumor therapy, CDX3379-MMAE or CDX3379-MMAF with IR, mouse survival; assay type: in vivo, C57BL/6 mice
Experimental: MOC1, B16, LL/2, and MC38 tumor cells were injected subcutaneously into the hindlimbs of 6-week-old female C57BL/6 albino mice in 100 µl of 1:1 Matrigel (BD) and PBS solution. Fractionated IR was delivered focally to the tumor-bearing hindlimbs (3 Gy to MC38 tumors and 5 Gy to LL/2 and B16 tumors) as indicated in figure legends using a PXI X-RAD 225 XL irradiator at maximal dose rate of 3 Gy/min with a beam-conditioning aluminum filter (Precision X-ray Irradiation). For RAG1 KO studies, 6-week-old female Rag1^tm1Mom mice were injected subcutaneously with tumor cells in their hindlimbs (Jackson Labs). For CD8 depletion studies, mice were i.p. injected with anti-CD8 (BioXCell #BE0117) at 10 mg/kg on days −6, −5 and −4 tumor cell implant and then weekly starting on day after tumor cells were injected or control antibody. […] Tumor volumes were measured and calculated using the formula as ½ * length * width^2. Mice were sacrificed when tumor volume reached >1500 mm^3, maximal tumor volume approved on our protocol for subcutaneous tumors.

For “Enapotamab vedotin: AXL-targeted ADC conjugate with an MMAE warhead”, the “survival and tumor control” value [1] is listed as “prolonged mouse survival; also recorded: failed to generate durable tumor control”.

In the case of `CC[C@H](C)[C@@H]([C@@H](CC(=O)N1CCC[C@H]1[C@H](OC)[C@@H](C)C(=O)N[C@@H](Cc1ccccc1)C(=O)O)OC)N(C)C(=O)[C@@H](NC(=O)[C@@H](NC)C(C)C)C(C)C` [MMAF, monomethyl auristatin F] (H-[NMeV]V[Dil][Dolaproine]F-OH), the “cell permeability as free drug” value [2] is listed as “reduced cell permeability compared to MMAE”.

With `N.N.[Cl][Pt][Cl]` [Cisplatin] the IC50 (A549) was 22600 nM and 27200 nM and 13600 nM and 15400 nM, the IC50 (HCT116) was 42200 nM and 55500 nM and the IC50 (CAL27; 72 h drug exposure, one value per biological replicate, read-out: IC50 values) was 3650 nM and 3760 nM and 7310 nM and 8270 nM and 7270 nM and 6950 nM. The IC50 (Detroit 562; Detroit 562, 72 h drug exposure, one value per biological replicate, read-out: IC50 values) was 11500 nM and 9550 nM and 10400 nM and 11800 nM, the IC50 (4MOSC1; 4MOSC1, 72 h drug exposure, one value per biological replicate, read-out: IC50 values) was 1370 nM and 1460 nM and the IC50 (B16; B16, 72 h drug exposure, one value per biological replicate, read-out: IC50 values) was 3770 nM and 4490 nM. For the same molecule, the IC50 (LL2; LL2, 72 h drug exposure, one value per biological replicate, read-out: IC50 values) was 1080 nM and 745 nM, the IC50 (MC38; MC38, 72 h drug exposure, one value per biological replicate, read-out: IC50 values) was 3640 nM and 3830 nM and the IC50 (MOC1; MOC1; 72 h drug exposure, Alamar Blue; one value per biological replicate; read-out: IC50 values) was 13700 nM and 15300 nM and 10400 nM and 10700 nM. The IC50 (MOC2; MOC2, 72 h drug exposure, one value per biological replicate, read-out: IC50 values) was 8750 nM and 9990 nM.

With `CC(=O)O[C@H]1C(=O)[C@@]2(C)[C@H]([C@H](OC(=O)c3ccccc3)[C@]3(O)C[C@H](OC(=O)[C@H](O)[C@@H](NC(=O)c4ccccc4)c4ccccc4)C(C)=C1C3(C)C)[C@]1(OC(C)=O)CO[C@@H]1C[C@@H]2O` [Paclitaxel] the IC50 (A549) was 23.3 nM and 15.1 nM, the IC50 (A549; Homo sapiens, A549, 72 h) was 16.6 nM and the IC50 (HCT116) was 2.04 nM and 8.38 nM and 12.4 nM and 9.33 nM. For the same molecule, the IC50 (CAL27; read-out: IC50 values, 72 h drug exposure, one value per biological replicate) was 1.4 nM and 1.52 nM and 3.46 nM and 4.62 nM and 3.12 nM and 3.36 nM, the IC50 (Detroit 562; Homo sapiens, Detroit 562, 72 h, read-out: IC50 values, Detroit 562, 72 h drug exposure, one value per biological replicate) was 5.71 nM and the IC50 (Detroit 562; read-out: IC50 values, Detroit 562, 72 h drug exposure, one value per biological replicate) was 5.94 nM and 3.87 nM and 4.75 nM. For the same molecule, the IC50 (4MOSC1; Mus musculus, 72 h, read-out: IC50 values, 4MOSC1, 72 h drug exposure, one value per biological replicate) was 7.65 nM, the IC50 (4MOSC1; read-out: IC50 values, 4MOSC1, 72 h drug exposure, one value per biological replicate) was 12.9 nM and the IC50 (B16; Mus musculus, B16, 72 h, read-out: IC50 values, B16, 72 h drug exposure, one value per biological replicate) was 6.1 nM. For the same molecule, the IC50 (B16; read-out: IC50 values, B16, 72 h drug exposure, one value per biological replicate) was 7.8 nM, the IC50 (LL2; Mus musculus, LL/2, 72 h, read-out: IC50 values, LL2, 72 h drug exposure, one value per biological replicate) was 15.3 nM and the IC50 (LL2; read-out: IC50 values, LL2, 72 h drug exposure, one value per biological replicate) was 16.6 nM. For the same molecule, the IC50 (MC38; Mus musculus, MC-38, 72 h, read-out: IC50 values, MC38, 72 h drug exposure, one value per biological replicate) was 67 nM, the IC50 (MC38; read-out: IC50 values, MC38, 72 h drug exposure, one value per biological replicate) was 75.7 nM and the IC50 (MOC1; read-out: IC50 values; MOC1; 72 h drug exposure, Alamar Blue; one value per biological replicate) was 45.4 nM and 54.2 nM and 26.8 nM and 24.6 nM. It also gave an IC50 (MOC2; Mus musculus, 72 h, read-out: IC50 values, MOC2, 72 h drug exposure, one value per biological replicate) of 43.5 nM and an IC50 (MOC2; read-out: IC50 values, MOC2, 72 h drug exposure, one value per biological replicate) of 56.4 nM.

B1: CDX3379-MMAF: anti-HER3 antibody CDX3379 conjugated to MMAF via MC-VC-PABC linker (conjugate, chains of the INN, looked up)
VH: EVQLLESGGGLVQPGGSLRLSCAASGFTFSSYAMSWVRQAPGKGLEWVSAINSQGKSTYYADSVKGRFTISRDNSKNTLYLQMNSLRAEDTAVYYCARWGDEGFDIWGQGTLVTVSS
VL: DIQMTQSPSSLSASVGDRVTITCRASQGISNWLAWYQQKPGKAPKLLIYGASSLQSGVPSRFSGSGSGTDFTLTISSLQPEDFATYYCQQYSSFPTTFGQGTKVEIK
modifications: MMAF via MC-VC-PABC linker
For B1, the “tumor control and survival, + IR” value (B16 tumors; B16, 2.5 nmoles ADC x 2 doses + IR 5 Gy x 3) was “CDX3379-MMAE proved to be superior to CDX3379-MMAF” and the “Mouse survival, status” value (B16 tumors; with IR, individual mice, status at the day, Figure 3h) was 1.
